Where a SMILES comes first, the peptide text is derived from it. [ ]: non-standard residue; d: D form. Arg(Me) = CNC(=N)NCCC[C@H](N)C(=O)O; d4Pal = N[C@H](Cc1ccncc1)C(=O)O; azaGly = NNC(=O)O
Experiments:
[1] = molecular target: T1, Adenine DNA glycosylase (Homo sapiens) (UniProt Q9UIF7); conditions: Compound Concentration 10.0 uM, Hit No;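 also: human MUTYH activity read as 594 nm fluorescence from cleavage and release of a quenched DNA duplex, coupled with APE1 for strand incision, lower signal meaning inhibition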
T1 sequence (whole entry): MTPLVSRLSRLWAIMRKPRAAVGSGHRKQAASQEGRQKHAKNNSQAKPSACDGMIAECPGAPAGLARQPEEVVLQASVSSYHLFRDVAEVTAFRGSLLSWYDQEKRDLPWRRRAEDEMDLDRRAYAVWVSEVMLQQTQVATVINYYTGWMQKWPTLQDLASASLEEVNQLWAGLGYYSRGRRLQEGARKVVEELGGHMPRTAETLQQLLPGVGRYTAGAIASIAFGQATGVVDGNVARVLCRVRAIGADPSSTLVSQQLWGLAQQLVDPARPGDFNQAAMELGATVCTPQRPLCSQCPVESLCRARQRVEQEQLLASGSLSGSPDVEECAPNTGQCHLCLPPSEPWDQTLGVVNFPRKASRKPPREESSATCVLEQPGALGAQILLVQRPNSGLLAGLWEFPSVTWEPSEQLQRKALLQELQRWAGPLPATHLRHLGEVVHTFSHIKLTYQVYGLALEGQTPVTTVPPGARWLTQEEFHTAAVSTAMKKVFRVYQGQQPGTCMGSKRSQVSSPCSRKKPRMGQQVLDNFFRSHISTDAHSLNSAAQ
Description: Inhibition of MUTYH by quantifying inhibition of MUTYH-mediated cleavage and dissociation of quenched duplex DNA oligonucleotides, measured as fluorescence at 594 nm. To generate a functional strand incision and increase turn-over this assay is coupled to APE1.

[2] = molecular target: Endonuclease 8-like 1 (Homo sapiens) (UniProt Q96FI4); conditions: Hit No;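 also: fluorescence at 594 nm from quenched duplex DNA oligonucleotides released by NEIL1 cleavage and strand separation, reported as reduction of this enzyme activity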
Description: Inhibition of NEIL1 by quantifying inhibition of NEIL1-mediated cleavage and dissociation of quenched duplex DNA oligonucleotides, measured as fluorescence at 594 nm.

[3] = molecular target: T2, Endonuclease 8-like 2 (Homo sapiens) (UniProt Q969S2); conditions: Hit No;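 also: fluorescence at 594 nm reports NEIL2 cutting and release of a quenched double-stranded DNA oligo substrate, reduced signal read as inhibition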
T2 sequence (whole entry): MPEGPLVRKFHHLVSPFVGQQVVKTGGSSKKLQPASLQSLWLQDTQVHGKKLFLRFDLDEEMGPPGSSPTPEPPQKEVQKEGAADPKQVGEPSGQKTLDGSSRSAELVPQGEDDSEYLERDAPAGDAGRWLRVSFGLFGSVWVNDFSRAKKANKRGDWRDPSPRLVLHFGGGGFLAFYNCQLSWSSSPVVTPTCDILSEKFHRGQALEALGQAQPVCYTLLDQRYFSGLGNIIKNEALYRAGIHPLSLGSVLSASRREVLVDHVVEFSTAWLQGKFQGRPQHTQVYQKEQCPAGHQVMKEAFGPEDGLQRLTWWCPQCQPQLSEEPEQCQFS
Description: Inhibition of NEIL2 by quantifying inhibition of NEIL2-mediated cleavage and dissociation of quenched duplex DNA oligonucleotides, measured as fluorescence at 594 nm.

[4] = molecular target: G/T mismatch-specific thymine DNA glycosylase (Homo sapiens) (UniProt Q13569); conditions: Hit No;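 also: human TDG cleavage of quenched duplex DNA oligonucleotides coupled to APE1, strand release read as fluorescence at 594 nm, inhibition of TDG activity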
Description: Inhibition of TDG by quantifying inhibition of TDG-mediated cleavage and dissociation of quenched duplex DNA oligonucleotides, measured as fluorescence at 594 nm. To generate a functional strand incision and increase turn-over this assay is coupled to APE1.

[5] = molecular target: Uracil-DNA glycosylase (Homo sapiens) (UniProt P13051); conditions: Hit No;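 also: UNG excision on a quenched double-stranded DNA oligo probe, with APE1 added for strand incision and turnover, read as fluorescence at 594 nm as strands separate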
Description: Inhibition of UNG by quantifying inhibition of UNG-mediated cleavage and dissociation of quenched duplex DNA oligonucleotides, measured as fluorescence at 594 nm. To generate a functional strand incision and increase turn-over this assay is coupled to APE1.

[6] = molecular target: N-glycosylase/DNA lyase (Homo sapiens) (UniProt O15527); conditions: Hit No;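 also: OGG1 cleavage of a quenched duplex DNA oligonucleotide, coupled to APE1 for strand incision, read as fluorescence at 594 nm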
Description: Inhibition of OGG1 by quantifying inhibition of OGG1-mediated cleavage and dissociation of quenched duplex DNA oligonucleotides, measured as fluorescence at 594 nm. To generate a functional strand incision and increase turn-over this assay is coupled to APE1.

[7] = molecular target: T3, Single-strand selective monofunctional uracil DNA glycosylase (Homo sapiens) (UniProt Q53HV7); conditions: Hit No;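 also: enzymatic SMUG1 assay coupled with APE1, reading fluorescence at 594 nm released when a quenched double-stranded DNA oligonucleotide substrate is cleaved and separated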
T3 sequence (whole entry): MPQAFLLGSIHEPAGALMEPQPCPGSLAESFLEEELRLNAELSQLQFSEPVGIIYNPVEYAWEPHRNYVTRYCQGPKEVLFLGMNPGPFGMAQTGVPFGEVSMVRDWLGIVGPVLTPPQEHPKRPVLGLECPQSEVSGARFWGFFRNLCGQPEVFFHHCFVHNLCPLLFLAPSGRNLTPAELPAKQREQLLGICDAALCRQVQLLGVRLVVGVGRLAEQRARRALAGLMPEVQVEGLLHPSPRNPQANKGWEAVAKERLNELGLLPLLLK
Description: Inhibition of SMUG1 by quantifying inhibition of SMUG1-mediated cleavage and dissociation of quenched duplex DNA oligonucleotides, measured as fluorescence at 594 nm. To generate a functional strand incision and increase turn-over this assay is coupled to APE1.

[8] = molecular target: Methyl-CpG-binding domain protein 4 (Homo sapiens) (UniProt O95243); conditions: Hit No;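 also: MBD4 activity read as fluorescence at 594 nm from cleavage and release of a quenched duplex DNA oligonucleotide, with APE1 coupled to incise the strand and raise turnover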
Description: Inhibition of MBD4 by quantifying inhibition of MBD4-mediated cleavage and dissociation of quenched duplex DNA oligonucleotides, measured as fluorescence at 594 nm. To generate a functional strand incision and increase turn-over this assay is coupled to APE1.

[9] = molecular target: T4, Endonuclease III-like protein 1 (Homo sapiens) (UniProt P78549); conditions: Hit No;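 also: enzyme assay tracking NTHL1 cutting and release of a quenched double-stranded DNA oligo substrate, read as fluorescence at 594 nm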
T4 sequence (whole entry): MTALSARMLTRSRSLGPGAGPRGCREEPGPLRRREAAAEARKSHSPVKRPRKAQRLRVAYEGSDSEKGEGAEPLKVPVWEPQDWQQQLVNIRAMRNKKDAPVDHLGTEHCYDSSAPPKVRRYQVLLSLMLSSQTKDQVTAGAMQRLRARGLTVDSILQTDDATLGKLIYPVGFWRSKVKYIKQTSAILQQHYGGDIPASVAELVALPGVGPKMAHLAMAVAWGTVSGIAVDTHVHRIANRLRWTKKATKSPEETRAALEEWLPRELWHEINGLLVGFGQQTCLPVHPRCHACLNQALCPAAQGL
Description: Inhibition of NTHL1 by quantifying inhibition of NTHL1-mediated cleavage and dissociation of quenched duplex DNA oligonucleotides, measured as fluorescence at 594 nm.

Chain of G/T mismatch-specific thymine DNA glycosylase (Homo sapiens) (Q13569 whole entry): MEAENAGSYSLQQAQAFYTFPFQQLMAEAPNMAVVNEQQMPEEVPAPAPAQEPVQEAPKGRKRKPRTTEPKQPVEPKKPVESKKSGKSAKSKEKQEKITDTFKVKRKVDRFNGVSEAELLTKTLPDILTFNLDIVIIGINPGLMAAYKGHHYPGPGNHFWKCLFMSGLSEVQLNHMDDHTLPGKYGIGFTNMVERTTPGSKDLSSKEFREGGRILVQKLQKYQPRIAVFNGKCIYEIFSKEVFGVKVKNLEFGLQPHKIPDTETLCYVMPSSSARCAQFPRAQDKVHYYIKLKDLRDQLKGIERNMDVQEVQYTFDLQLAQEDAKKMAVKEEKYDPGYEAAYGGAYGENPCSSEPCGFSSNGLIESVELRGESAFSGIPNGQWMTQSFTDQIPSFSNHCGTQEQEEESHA
Chain of Endonuclease 8-like 1 (Homo sapiens) (Q96FI4 whole entry): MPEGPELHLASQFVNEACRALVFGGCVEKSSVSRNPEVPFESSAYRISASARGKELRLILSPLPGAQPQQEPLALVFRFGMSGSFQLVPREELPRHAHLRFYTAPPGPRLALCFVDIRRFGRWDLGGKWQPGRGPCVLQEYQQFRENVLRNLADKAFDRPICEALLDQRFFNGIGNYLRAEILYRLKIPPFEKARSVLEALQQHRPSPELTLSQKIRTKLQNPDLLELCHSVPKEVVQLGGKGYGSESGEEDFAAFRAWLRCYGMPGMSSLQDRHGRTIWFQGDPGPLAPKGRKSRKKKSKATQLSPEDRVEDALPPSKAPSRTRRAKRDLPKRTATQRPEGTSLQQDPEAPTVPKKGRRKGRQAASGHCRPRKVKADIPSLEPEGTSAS
Chain of Methyl-CpG-binding domain protein 4 (Homo sapiens) (O95243 whole entry, the tested form may be a part): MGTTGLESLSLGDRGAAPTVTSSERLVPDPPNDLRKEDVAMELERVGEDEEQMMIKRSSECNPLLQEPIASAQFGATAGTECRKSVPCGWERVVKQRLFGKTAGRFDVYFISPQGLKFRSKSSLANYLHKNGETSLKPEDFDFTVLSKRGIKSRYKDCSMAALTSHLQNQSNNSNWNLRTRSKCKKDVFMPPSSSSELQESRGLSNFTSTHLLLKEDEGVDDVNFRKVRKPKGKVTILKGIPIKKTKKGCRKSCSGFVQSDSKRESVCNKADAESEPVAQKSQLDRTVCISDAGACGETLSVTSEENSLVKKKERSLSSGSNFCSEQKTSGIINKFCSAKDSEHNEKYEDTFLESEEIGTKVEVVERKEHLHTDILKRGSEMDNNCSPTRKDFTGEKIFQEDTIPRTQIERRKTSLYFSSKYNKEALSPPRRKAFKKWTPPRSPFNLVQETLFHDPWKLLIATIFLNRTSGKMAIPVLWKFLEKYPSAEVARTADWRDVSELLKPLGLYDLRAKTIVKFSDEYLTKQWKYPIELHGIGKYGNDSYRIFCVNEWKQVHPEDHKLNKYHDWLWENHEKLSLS
Chain of Uracil-DNA glycosylase (Homo sapiens) (P13051 whole entry): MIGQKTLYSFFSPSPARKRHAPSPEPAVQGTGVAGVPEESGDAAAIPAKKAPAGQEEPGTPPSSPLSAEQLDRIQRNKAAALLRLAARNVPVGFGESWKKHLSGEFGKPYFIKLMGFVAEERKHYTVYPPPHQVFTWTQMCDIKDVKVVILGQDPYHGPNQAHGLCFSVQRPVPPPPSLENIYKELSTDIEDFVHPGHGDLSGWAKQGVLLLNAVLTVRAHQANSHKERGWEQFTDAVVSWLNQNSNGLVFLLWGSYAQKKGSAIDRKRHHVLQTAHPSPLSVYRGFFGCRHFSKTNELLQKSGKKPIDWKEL
Chain of N-glycosylase/DNA lyase (Homo sapiens) (O15527 whole entry): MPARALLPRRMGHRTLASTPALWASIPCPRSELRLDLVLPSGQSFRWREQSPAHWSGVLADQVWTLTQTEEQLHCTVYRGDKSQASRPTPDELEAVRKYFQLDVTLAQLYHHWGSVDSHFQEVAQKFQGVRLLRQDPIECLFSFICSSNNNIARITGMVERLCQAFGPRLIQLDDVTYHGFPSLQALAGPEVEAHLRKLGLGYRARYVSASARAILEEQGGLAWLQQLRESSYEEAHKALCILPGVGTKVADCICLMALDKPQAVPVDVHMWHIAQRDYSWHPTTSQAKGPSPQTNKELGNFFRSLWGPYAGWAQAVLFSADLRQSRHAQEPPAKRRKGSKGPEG

inhibition [1] [%] | inhibition ([2]; Compound Concentration 10.0 uM) [%] | inhibition ([3]; Compound Concentration 10.0 uM) [%] | inhibition ([4]; Compound Concentration 10.0 uM) [%] | inhibition ([5]; Compound Concentration 10.0 uM) [%] | inhibition ([6]; Compound Concentration 10.0 uM) [%] | inhibition ([7]; Compound Concentration 10.0 uM) [%] | inhibition ([8]; Compound Concentration 10.0 uM) [%] | inhibition ([9]; Compound Concentration 10.0 uM) [%] | inhibition ([8]; Compound Concentration 1.0 uM) [%] | inhibition ([2]; Compound Concentration 1.0 uM) [%] | inhibition ([3]; Compound Concentration 1.0 uM) [%] | inhibition ([9]; Compound Concentration 1.0 uM) [%] | inhibition ([6]; Compound Concentration 1.0 uM) [%] | inhibition ([7]; Compound Concentration 1.0 uM) [%] | inhibition ([4]; Compound Concentration 1.0 uM) [%] | inhibition ([5]; Compound Concentration 1.0 uM) [%] | SMILES
8.72 | -8.8 | -0.483 | 4.21 | -8.11 |  |  |  |  |  |  |  |  |  |  |  |  | CC(C)Oc1ccccc1C(=O)Nc1ccccc1C(=O)Nc1cccc(S(=O)(=O)C(F)(F)F)c1
6.16 | -0.945 | 7.5 | 16.1 |  | -0.929 | -4.15 |  |  |  |  |  |  |  |  |  |  | Oc1cc2c(cc1O)C(c1ccccc1)CNCC2 (stereo unspecified)
-7.79 | -0.352 |  | 6.54 |  | -9.29 | 3.94 |  |  |  |  |  |  |  |  |  |  | COc1cccc([C@@H](C)NCCCc2ccccc2Cl)c1
-7.66 | 2.61 | -0.983 |  |  | -2.34 |  |  |  |  |  |  |  |  |  |  |  | NC[C@H](O)c1ccc(O)c(O)c1
 | -9.07 | 8.19 | 35.6 | 1.44 | 3.97 | 19.9 | 51.7 | -9.83 |  |  |  |  |  |  |  |  | Cc1c(NC(=O)c2cc(C(N)=O)nc3cc(F)ccc23)c(C(F)(F)F)nn1Cc1ccc(C#N)cc1
 | 6.35 | 1.31 | 33.2 | 0.982 | -7.06 | 17.5 | -2.48 | -8.28 |  |  |  |  |  |  |  |  | Cn1cc(-c2ccc3occ(-c4ccccc4-c4ccccc4)c3n2)cn1
 | -9.23 | -7.38 | 97.5 | -6.33 | 11.1 | 2.42 | 52.8 | 1.34 |  |  |  |  |  |  |  |  | COc1cccc(Cn2cc(C(=O)Nc3ccc(C)c(S(=O)(=O)N4CCOCC4)c3)c(-c3ccc(C)cc3)n2)c1
 | 2.89 | 5.38 | 57.9 | 7.23 | 15 | 15.9 | 65.1 | 3.97 |  |  |  |  |  |  |  |  | Cn1c(C2(NC(=O)c3ccc(NCC4CCCCC4)nc3)CCC2)nc2ccc(/C=C/C(=O)O)cc21
 | -4.68 | 6.4 | 52.5 | 6.61 | -3.16 | 19.5 | 54 | -1.29 |  |  |  |  |  |  |  |  | CNC(=N)NCCC[C@H](NC(=O)[C@H](CC(C)C)NC(=O)NNC(=O)[C@H](Cc1ccccc1)NC(=O)[C@H](CO)NC(=O)[C@H](CC(N)=O)NC(=O)[C@@H](Cc1ccncc1)NC(=O)[C@H](N)Cc1ccc(O)cc1)C(=O)N[C@@H](Cc1ccccc1)C(N)=O (H-[dY][d4Pal]NSF[azaGly]L[Arg(Me)]F-NH2)
 | -8.77 | -2.27 | 31.2 | 1.83 | -5.53 | 9.99 | 55.5 | -5.89 |  |  |  |  |  |  |  |  | Cc1cn([C@H](C)CC#N)c(=O)c2cc(Cn3nc(C(F)F)cc3Cl)nn12
 | -0.0556 | -0.234 | 2.98 | -7.78 | -6.16 | -7.54 | -2.64 | 21 |  |  |  |  |  |  |  |  | O=C(O)CCC/C=C\CC1C(O)CC(O)C1/C=C/C(O)COc1cccc(Cl)c1 (stereo unspecified)
 | -1.35 | 5.12 | 40.6 | 2.78 | 4.16 | 8.89 | 47.2 | -3.26 |  |  |  |  |  |  |  |  | CNC(=O)c1cc(C(=O)N[C@H]2[C@@H]3COC[C@@H]32)cc2c1O[C@H](CF)[C@H]2c1ccccc1
 | -6.8 | -2.02 | 64.2 | -1.04 | -1.15 | -2.17 | 47.6 | -8.52 |  |  |  |  |  |  |  |  | OC(c1ccc(-c2ccc(CN3CCN(Cc4ccncc4)CC3)cc2)c(F)c1)(C(F)(F)F)C(F)(F)F
 | -4.99 | 3.34 | 97.2 | 4.51 | 35.5 | 16.5 | 54.3 | 5.29 |  |  |  |  |  |  |  |  | O=C(O)c1ccnc(N2CC(O)(c3ccc(OCc4c(-c5c(Cl)cccc5Cl)noc4C4CC4)cc3Cl)C2)c1
 | -9.38 | -9.67 | 36.9 | -1.13 | 3.62 | 6.37 | 54.9 | -8.52 |  |  |  |  |  |  |  |  | O=C(NCc1ncc(C(F)(F)F)cc1Cl)c1ccc2c(c1)C1(CCS(=O)(=O)CC1)[C@@H](C1CC1)N2S(=O)(=O)c1ccc(F)cc1
 |  |  |  |  |  |  |  |  | 1.45 | -3.17 | -7.57 | 2.88 | -7.95 | 2.52 | 35.2 | -6.54 | CC[C@@H]1[C@H](F)C(=O)N[C@@H]1COc1nccc2cc(C(N)=O)c(OC)cc12
 | -5.44 | -6.36 | 57.4 | -9.54 | 5 | 17.1 | 15.3 | -2.6 |  |  |  |  |  |  |  |  | CC(C)(O)c1cn(-c2ccc(-c3cccc(S(C)(=O)=O)c3)cc2)c(C(C)(C)c2ccccc2Cl)n1
 |  |  |  |  |  |  |  |  | 54.5 | -7.71 | -2.79 | -9.18 | -4.49 | 14.1 | 41 | 6.25 | CN(C)C(=O)Cn1cc(-c2nc([C@@](C)(c3ccc(-c4cnc(N)nc4)cc3)C3CC3)no2)cn1
 | -4.23 | -7.38 | 58.3 | -0.808 | 10.8 | 8.36 | 55.4 | -3.92 |  |  |  |  |  |  |  |  | COc1cc(O)c(C(CC(=O)N2C[C@H](C)C[C@H](C)C2)c2ccc3c(c2)OCO3)c(OC)c1 (stereo partly specified)
 |  |  |  |  |  |  |  |  | 40 | -7.27 | -7.9 | -3.66 | 1.96 | 7.64 | 50.8 | 1.49 | Cc1cc(C)c(-n2ccn3nc(-c4cccnc4)cc23)cc1NC(=O)c1cc(C#N)cc(S(F)(F)(F)(F)F)c1
 | -8.95 | -4.78 | 51.6 | 4.22 | 0.354 | 21.2 | 22.3 | -0.801 |  |  |  |  |  |  |  |  | C[C@H](NC(=O)Nc1cc2[nH]ncc2c(CO)n1)c1ccccn1
 | -9.23 | 0.0213 | 49.3 | -0.0293 | -2.92 | 3.56 | 72.4 | -5.89 |  |  |  |  |  |  |  |  | C[C@@H](c1cccc(CN)c1)n1cc(Cl)cc(C(N)=O)c1=N
 |  |  |  |  |  |  |  |  | 70.6 | 2.13 | 0.276 | -5.23 | 10.2 | 23 | 57.6 | 6.95 | CCCOc1ccc([C@H]2[C@H](C(=O)O)[C@@H](c3ccc4c(c3)OCO4)CN2CC(=O)Nc2c(CC)cccc2CC)cc1

SMILES | inhibition [1] [%] | inhibition ([2]; Compound Concentration 10.0 uM) [%] | inhibition ([3]; Compound Concentration 10.0 uM) [%] | inhibition ([4]; Compound Concentration 10.0 uM) [%] | inhibition ([5]; Compound Concentration 10.0 uM) [%] | inhibition ([6]; Compound Concentration 10.0 uM) [%] | inhibition ([7]; Compound Concentration 10.0 uM) [%] | inhibition ([8]; Compound Concentration 10.0 uM) [%] | inhibition ([9]; Compound Concentration 10.0 uM) [%] | inhibition ([8]; Compound Concentration 1.0 uM) [%] | inhibition ([2]; Compound Concentration 1.0 uM) [%] | inhibition ([3]; Compound Concentration 1.0 uM) [%] | inhibition ([9]; Compound Concentration 1.0 uM) [%] | inhibition ([6]; Compound Concentration 1.0 uM) [%] | inhibition ([7]; Compound Concentration 1.0 uM) [%] | inhibition ([4]; Compound Concentration 1.0 uM) [%] | inhibition ([5]; Compound Concentration 1.0 uM) [%]
Cc1nc[nH]c1CCN | -5.1 | -5.39 | -3.73 | 8.2 |  | -7.09 | -7.49 |  |  |  |  |  |  |  |  |  | 
CNC(=O)c1cc(C(=O)NC2CC2)cn(Cc2ccccc2)c1=O |  | 8.49 | -1.25 | 29.8 | -2.05 | 10.8 | -2.99 | 59.4 | -1.29 |  |  |  |  |  |  |  | 

From ChEMBL document CHEMBL5665443, “Enzyme Inhibitor Single Concentration assay results for EUbOPEN Chemogenomics Library” (2024)
